# According to patent publication US20070128217A1 (priority 2003, published 2007):
# Key:
# [1] = test system: antibodies in sera from SARS patients (sera 1a, 1b, 2, 6, 37, 62, London, SARS-yellow, SARS-green); assay type: binding, human; set-up: Binding of serum 6 to linear peptides of protein X1 of SARS-CoV Urbani / Binding of serum 37 to linear peptides of protein X1 of SARS-CoV Urbani / Binding of serum 6 to looped/cyclic peptide (PEPSCAN-ELISA) / Binding of serum 37 to looped/cyclic peptide (PEPSCAN-ELISA) / Binding of serum 37 to looped/cyclic peptides of protein X1 of SARS-CoV Urbani / Binding of serum 6 to linear peptides of protein X2 / Binding of serum 37 to linear peptides of protein X2 / Binding of serum 37 to looped/cyclic peptides of protein X2 of SARS-CoV Urbani / Binding of serum 6 to linear peptides of protein M of SARS-CoV Urbani / Binding of serum 37 to linear peptides of protein M of SARS-CoV Urbani / Binding of serum 6 to looped/cyclic peptides of protein M of SARS-CoV Urbani / Binding of serum 37 to looped/cyclic peptides of protein M of SARS-CoV Urbani / Binding of serum 6 to linear peptides of protein X3 of SARS-CoV Urbani / Binding of serum 37 to linear peptides of protein X3 of SARS-CoV Urbani / Binding of serum 37 to looped/cyclic peptides of protein X3 of SARS-CoV Urbani / Binding of serum 6 to linear peptides of protein X4 of SARS-CoV Urbani / Binding of serum 37 to linear peptides of protein X4 of SARS-CoV Urbani / Binding of serum 37 to looped/cyclic peptides of protein X4 of SARS-CoV Urbani / Binding of serum 6 to linear peptides of protein X5 of SARS-CoV Urbani / Binding of serum 37 to linear peptides of protein X5 of SARS-CoV Urbani / Binding of serum 37 to looped/cyclic peptides of protein X5 of SARS-CoV Urbani / Binding of serum 6 to linear peptides of protein N of SARS-CoV Urbani / Binding of serum 37 to linear peptides of protein N of SARS-CoV Urbani / Binding of serum 6 to linear peptide (PEPSCAN-ELISA) / Binding of serum 1a to looped/cyclic peptides of protein N of SARS-CoV Urbani / Binding of serum 1b to looped/cyclic peptides of protein N of SARS-CoV Urbani / Binding of serum 2 to looped/cyclic peptides of protein N of SARS-CoV Urbani / Binding of serum 6 to looped/cyclic peptides of protein N of SARS-CoV Urbani / Binding of serum 37 to looped/cyclic peptides of protein N of SARS-CoV Urbani / Binding of serum 62 to looped/cyclic peptides of protein N of SARS-CoV Urbani / Binding of serum London to looped/cyclic peptides of protein N of SARS-CoV Urbani / Binding of serum SARS-green to looped/cyclic peptides of protein N of SARS-CoV Urbani: unit not given here
# [2] = test system: control sera (pooled serum of ten healthy LUMC hospital workers; commercial negative donor pooled serum from the Dutch bloodbank); assay type: binding, human; set-up: Binding of Control serum LUMC to linear peptides / Binding of Control serum Blood-bank to linear peptides / Binding of Control serum LUMC to looped peptides / Binding of Control Serum Blood-Bank to Looped peptides / Binding of Control serum LUMC to linear peptides of the protein M of SARS-CoV Urbani / Binding of Control serum Blood-bank to linear peptides of the protein M of SARS-CoV Urbani / Binding of Control serum LUMC to looped peptides of the protein M of SARS-CoV Urbani / Binding of Control Serum Blood-Bank to Looped peptides of the protein M of SARS-CoV Urbani: unit not given here
# [3] = test system: rabbit serum obtained by immunizing a rabbit with the SARS-CoV strain Frankfurt 1; assay type: binding; set-up: Binding of a rabbit serum to linear peptides / Binding of a rabbit serum to looped peptides / Rabbit serum linear peptides / Rabbit serum looped peptides / Binding of a rabbit serum to linear peptides of protein N of SARS-CoV Urbani (Rabbit serum linear peptides) / Binding of a rabbit serum to looped/cyclic peptides of protein N of SARS-CoV Urbani (Rabbit serum looped peptides): unit not given here
sequence,measurement,setting,value
YNTRGNTYSTAWLCA,Binding of serum 1a to linear peptides of protein X5 of SARS-CoV Urbani,[1],0.8
same,Binding of serum 1a to looped/cyclic peptides of protein X5 of SARS-CoV Urbani,[1],0.3
same,Binding of serum 1b to linear peptides of protein X5 of SARS-CoV Urbani,[1],0.6
same,Binding of serum 1b to looped/cyclic peptides of protein X5 of SARS-CoV Urbani,[1],0.2
same,Binding of serum 2 to linear peptides of protein X5 of SARS-CoV Urbani,[1],0.6
same,Binding of serum 2 to looped/cyclic peptides of protein X5 of SARS-CoV Urbani,[1],0.4
same,Binding of serum 6 to linear peptides of protein X5 of SARS-CoV Urbani,[1],0.8
same,Binding of serum 6 to looped/cyclic peptides of protein X5 of SARS-CoV Urbani,[1],0.4
same,Binding of serum 37 to linear peptides of protein X5 of SARS-CoV Urbani,[1],0.7
same,Binding of serum 37 to looped/cyclic peptides of protein X5 of SARS-CoV Urbani,[1],0.0
same,Binding of serum 62 to linear peptides of protein X5 of SARS-CoV Urbani,[1],0.7
same,Binding of serum 62 to looped/cyclic peptides of protein X5 of SARS-CoV Urbani,[1],0.2
same,Binding of serum London to linear peptides of protein X5 of SARS-CoV Urbani,[1],0.8
same,Binding of serum London to looped/cyclic peptides of protein X5 of SARS-CoV Urbani,[1],0.2
same,Binding of serum SARS-green to linear peptides of protein X5 of SARS-CoV Urbani,[1],0.7
same,Binding of serum SARS-green to looped/cyclic peptides of protein X5 of SARS-CoV Urbani,[1],0.2
same,Binding of serum SARS-yellow to linear peptides of protein X5 of SARS-CoV Urbani,[1],0.4
same,Binding of serum SARS-yellow to looped/cyclic peptides of protein X5 of SARS-CoV Urbani,[1],0.6
same,Binding of Control Serum Blood-Bank to Looped peptides,[2],0.5
same,Binding of Control serum Blood-bank to linear peptides,[2],0.7
same,Binding of Control serum LUMC to linear peptides,[2],0.6
same,Binding of Control serum LUMC to looped peptides,[2],0.5
same,Rabbit serum linear peptides,[3],0.7
same,Rabbit serum looped peptides,[3],0.0
YRIGNYKLNTDHAGS,Binding of serum 1a to linear peptides of protein M of SARS-CoV Urbani,[1],0.7
same,Binding of serum 1a to looped/cyclic peptides of protein M of SARS-CoV Urbani,[1],0.8
same,Binding of serum 1b to linear peptides of protein M of SARS-CoV Urbani,[1],0.6
same,Binding of serum 1b to looped/cyclic peptides of protein M of SARS-CoV Urbani,[1],0.6
same,Binding of serum 2 to linear peptides of protein M of SARS-CoV Urbani,[1],0.5
same,Binding of serum 2 to looped/cyclic peptides of protein M of SARS-CoV Urbani,[1],0.5
same,Binding of serum 6 to linear peptides of protein M of SARS-CoV Urbani,[1],0.2
same,Binding of serum 6 to looped/cyclic peptides of protein M of SARS-CoV Urbani,[1],0.8
same,Binding of serum 37 to linear peptides of protein M of SARS-CoV Urbani,[1],0.8
same,Binding of serum 37 to looped/cyclic peptides of protein M of SARS-CoV Urbani,[1],0.7
same,Binding of serum 62 to linear peptides of protein M of SARS-CoV Urbani,[1],0.7
same,Binding of serum 62 to looped/cyclic peptides of protein M of SARS-CoV Urbani,[1],0.6
same,Binding of serum London to linear peptides of protein M of SARS-CoV Urbani,[1],0.5
same,Binding of serum London to looped/cyclic peptides of protein M of SARS-CoV Urbani,[1],0.4
same,Binding of serum SARS-green to linear peptides of protein M of SARS-CoV Urbani,[1],0.2
same,Binding of serum SARS-green to looped/cyclic peptides of protein M of SARS-CoV Urbani,[1],0.3
same,Binding of serum SARS-yellow to linear peptides of protein M of SARS-CoV Urbani,[1],0.1
same,Binding of serum SARS-yellow to looped/cyclic peptides of protein M of SARS-CoV Urbani,[1],0.6
same,Binding of Control Serum Blood-Bank to Looped peptides of the protein M of SARS-CoV Urbani,[2],0.6
same,Binding of Control serum Blood-bank to linear peptides of the protein M of SARS-CoV Urbani,[2],0.6
same,Binding of Control serum LUMC to linear peptides of the protein M of SARS-CoV Urbani,[2],0.3
same,Binding of Control serum LUMC to looped peptides of the protein M of SARS-CoV Urbani,[2],0.6
same,Rabbit serum linear peptides,[3],0.6
same,Rabbit serum looped peptides,[3],0.1
YRINWVTGGIAIAMA,Binding of serum 1a to linear peptides of protein M of SARS-CoV Urbani,[1],0.7
same,Binding of serum 1a to looped/cyclic peptides of protein M of SARS-CoV Urbani,[1],0.6
same,Binding of serum 1b to linear peptides of protein M of SARS-CoV Urbani,[1],0.6
same,Binding of serum 1b to looped/cyclic peptides of protein M of SARS-CoV Urbani,[1],0.4
same,Binding of serum 2 to linear peptides of protein M of SARS-CoV Urbani,[1],0.7
same,Binding of serum 2 to looped/cyclic peptides of protein M of SARS-CoV Urbani,[1],0.6
same,Binding of serum 6 to linear peptides of protein M of SARS-CoV Urbani,[1],0.3
same,Binding of serum 6 to looped/cyclic peptides of protein M of SARS-CoV Urbani,[1],0.5
same,Binding of serum 37 to linear peptides of protein M of SARS-CoV Urbani,[1],0.8
same,Binding of serum 37 to looped/cyclic peptides of protein M of SARS-CoV Urbani,[1],0.5
same,Binding of serum 62 to linear peptides of protein M of SARS-CoV Urbani,[1],0.8
same,Binding of serum 62 to looped/cyclic peptides of protein M of SARS-CoV Urbani,[1],0.6
same,Binding of serum London to linear peptides of protein M of SARS-CoV Urbani,[1],0.3
same,Binding of serum London to looped/cyclic peptides of protein M of SARS-CoV Urbani,[1],0.2
same,Binding of serum SARS-green to linear peptides of protein M of SARS-CoV Urbani,[1],0.3
same,Binding of serum SARS-green to looped/cyclic peptides of protein M of SARS-CoV Urbani,[1],0.0
same,Binding of serum SARS-yellow to linear peptides of protein M of SARS-CoV Urbani,[1],0.1
same,Binding of serum SARS-yellow to looped/cyclic peptides of protein M of SARS-CoV Urbani,[1],0.8
same,Binding of Control Serum Blood-Bank to Looped peptides of the protein M of SARS-CoV Urbani,[2],0.7
same,Binding of Control serum Blood-bank to linear peptides of the protein M of SARS-CoV Urbani,[2],0.8
same,Binding of Control serum LUMC to linear peptides of the protein M of SARS-CoV Urbani,[2],0.6
same,Binding of Control serum LUMC to looped peptides of the protein M of SARS-CoV Urbani,[2],0.6
same,Rabbit serum linear peptides,[3],0.4
same,Rabbit serum looped peptides,[3],0.3
